This assay has as its system CEM cells HIV-1 protection, formazan growth assay. In words: NCI AIDS Antiviral Assay. To be noted: for IC50: measured here: growth of uninfected CEM cells. The gist of the method: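 Human CEM cells, uninfected and HIV-1-infected, exposed to five drug concentrations; growth measured by soluble formazan assay and scored as percent protection from infection, with protecting compounds retested.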

Several values for one entry are separate records, joined by “and”; a condition that tells them apart may be missing. Identical values can stand only once. Activity calls are given as the source filed them.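 How the source made its calls: active means compounds giving half or more protection of infected cells from virus-caused growth loss, again on retest; inactive means the rest.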 *1 amine or outer side, *2 acyl side, *3 side chain or, on linkers, in order; H or OH if unused. Where a SMILES comes first, the peptide text is derived from it. [ ]: non-standard residue; d: D form. The star is where a group is joined. ξ: configuration not given here. X15 = O=C([C@H]1CCC[C@H]1N[*:1])[*:2]; ξW = NC(Cc1c[nH]c2ccccc12)C(=O)O; ξF = NC(Cc1ccccc1)C(=O)O; Cbz = O=C(OCc1ccccc1)*; Boc = CC(C)(C)OC(=O)*; Aib = CC(C)(N)C(=O)O; ξK = NCCCCC(N)C(=O)O; ξT = CC(O)C(N)C(=O)O; OBn = c1ccc(CO*)cc1; tBu = CC(C)(C)*

In the case of `CCOC(=O)c1c2c(n3ccccc13)C(=O)C(C)(C(=O)OCC)S2` (centres undefined), the result was active.

With `COc1cc2cccc(N=Cc3cccc(OC)c3OC(C)C)c2cc1OC`, the EC50 is above 13.2 µM and the half-maximal inhibitory concentration (IC50) is above 13.2 µM.

For `CC(C)C1CCC2(C)CC3C(CO)CC(O)C3C(C)(O)C/C=C/12` (centres undefined), the outcome was inactive.

For `CN1CCN(Cc2nc3cccc4c3c([n+]2[O-])-c2ccccc2-4)CC1`, the result was inactive.

As to `CC(NC(=O)C(C)(C)NC(=O)C(CC(=O)OCc1ccccc1)NC(=O)OCc1ccccc1)C(N)=O` (centres undefined) (Cbz-Asp(OBn)-[Aib]-Ala-NH2; configuration not given here), the EC50 is above 200 µM and the half-inhibitory concentration (IC50) is above 200 µM.

As for `CC(OC(C)(C)C)C1NC(=O)C(CCCCNC(=O)OC(C)(C)C)NC(=O)C(Cc2c[nH]c3ccccc23)NC(=O)C(Cc2ccccc2)NC(=O)[C@H]2CCC[C@H]2NC(=O)C(Cc2ccccc2)NC1=O` (some centres undefined) (cyclo([X15][ξF][ξW][ξK](Boc)[ξT](tBu)[ξF])), the result was inactive.

For `Cc1ccnc2c1C(=O)C(=O)C=C2N1CCC(C)CC1`, the outcome was inactive.

Turning to `CC(O)C(O)C(O)C(O)c1nc2ccccc2[nH]1` (centres undefined), the result was inactive.

Consider `Clc1nc2cc3nc(Cl)c(Cl)nc3cc2nc1Cl`, for which the EC50 is above 50.1 µM and the IC50 was found to be 33.1 µM.

As to `O=C1C(Cl)N(c2c(Cl)cccc2Cl)C1c1c[nH]c2ccccc12` (centres undefined), the EC50 is above 257 µM and the IC50 was determined as 115 µM.

In the case of `O=C1c2ccccc2CC1C1(O)C(=O)Nc2c(Cl)cc(Cl)cc21` (centres undefined), the EC50 was above 102 µM and the IC50 was above 102 µM.

Regarding `COc1ccc(-n2c(-c3ccccc3)cc(-c3cccs3)c2-c2cccs2)cc1`, the EC50 is above 200 µM and the IC50 is above 200 µM.

Turning to `Cc1ccc(S(=O)(=O)N2CCCCCC2)cc1`, the EC50 is above 200 µM and the concentration for half-maximal inhibition (IC50) was above 100 µM.

Turning to `Cn1cnc(=S)c2ccccc21`, the EC50 is above 200 µM and the IC50 is above 200 µM.

As for `COC(=O)NN/C=C(\C=Nc1ccccc1)[N+](=O)[O-]`, the EC50 was above 97.7 µM and the IC50 was 87.1 µM.

For `Cc1ccc2c(c1)SSc1ccc(C)cc1SS2`, the EC50 was above 200 µM and the IC50 turned out to be 110 µM.

For `C=C1C(C2(C)C=CC(=O)OC3(C)COC(=O)CC32)C(OC=O)C(OC(=O)C(O)C(C)CC)C2(C)C(c3ccoc3)CC(OC(C)=O)C12O` (centres undefined), the result was inactive.

As for `CN=C1Nc2ccccc2C(=S)N2CSC[C@@H]12`, the EC50 is above 200 µM and the IC50 is above 200 µM.

As to `CCCC=NCCOC(=S)[S-].CCCC=NCCOC(=S)[S-].[Zn+2]`, the EC50 is above 100 µM and the IC50 turned out to be 56.2 µM.

Take `C=C[C@@]1(O)CCCC2=C(C(=O)OCC)CC[C@]21C`: the result was inactive.

For the molecule `COc1ccc(NC(=O)CC(=O)N2N=C(N3c4ccccc4Sc4ccccc43)CC2c2ccccc2)cc1` (centres undefined), the outcome was inactive.

As to `Cc1ccc2c(c1)nc1c3ccccc3nnn21`, the EC50 is above 16.2 µM and the IC50 is above 16.2 µM.

Regarding `CC1(O)CCC2(C#N)CCC1C2O` (centres undefined), the EC50 was above 1380 µM and the IC50 was above 1380 µM.

As to `N#C/C(=N/Nc1nc[nH]c1C(N)=O)C(=O)Nc1ccccc1`, the EC50 is above 200 µM and the 50% inhibitory concentration (IC50) was 1.07 µM.

Consider `CC(=O)c1c(-c2ccc(Cl)cc2)c(C#N)c(=S)n(C2OC(CO)C(O)C(O)C2O)c1-c1ccccc1` (centres undefined), for which the EC50 is above 200 µM; the half-inhibitory concentration (IC50) was 28.2 µM and 14.1 µM.

With `COc1cc(C2C(Cl)C(=O)N2n2cnc3ccccc3c2=O)cc(OC)c1OC` (centres undefined), the EC50 was above 6.61 µM and the IC50 is above 6.61 µM.

In the case of `CSc1nc2c(=O)oc(-c3ccccc3)nc2s1`, the EC50 was above 200 µM and the IC50 turned out to be 6.03 µM.

Regarding `Nc1ncnc2c1ncn2C1OC(C(O)CO)C(O)C1O` (centres undefined), the EC50 is above 200 µM and the IC50 was above 200 µM.

For the molecule `Oc1ccccc1/C=N/N1C(=S)N(C23CC4CC(CC(C4)C2)C3)C(=Nc2ccccc2)C1=Nc1ccccc1`, the EC50 is above 200 µM and the IC50 was 85.1 µM.

`Cn1c(CNc2ccc(-c3n[nH]c(=S)n3C)cc2)n[nH]c1=S`: the EC50 was above 200 µM and the IC50 was above 200 µM.

Regarding `Cc1c2c(c(C)c3c[n+](C)ccc13)Oc1ccccc1O2`, the EC50 is above 20 µM and the IC50 came out at 3.72 µM.

Take `Clc1ccc(CN2COc3c(cc(Cl)c4cccnc34)C2)cc1Cl`: the EC50 was above 200 µM and the IC50 was 1.07 µM.

As for `CNc1ccc(/C=C/c2ccnc3ccccc23)cc1`, the EC50 is above 200 µM and the half-inhibitory concentration (IC50) worked out at 6.31 µM.

With `CC1CCc2c(sc3ncnc(N/N=C/c4ccc(Cl)cc4)c23)C1` (centres undefined), the EC50 is above 14.5 µM and the IC50 was above 14.5 µM.

With `Cc1nn(-c2ccccc2)c2c1S(=O)(=O)c1ccccc1-2`, the EC50 was above 112 µM and the IC50 turned out to be 69.2 µM.

In the case of `Oc1c2cc(Cl)cc1COCc1cc(Cl)cc(c1O)COCc1cc(Cl)cc(c1O)COC2`, the EC50 was above 200 µM and the half-maximal inhibitory concentration (IC50) is 38.9 µM.

For the molecule `O=S(O)CCCSSSCCCS(=O)O`, the result was inactive.

For `Cc1cn(C2CC(N(O)C(N)=O)C(CO)O2)c(=O)[nH]c1=O` (centres undefined), the EC50 is above 200 µM; the 50% inhibitory concentration (IC50) was > 200 µM and 107 µM.

For `Cc1c2n(c(=O)[nH]c1=O)C1OC(CO)C(N=[N+]=[N-])C1O2` (centres undefined), the EC50 is above 200 µM and the IC50 was above 200 µM.

In the case of `COC(=O)c1ncn(C)c1O`, the EC50 is above 200 µM and the IC50 is above 200 µM.

For the molecule `Cc1sc2ccccc2c2nc3ccccc3c1-2`, the outcome was inactive.

Take `CCn1c(=O)c(N=O)c(N)n(CCCOC)c1=O`: the EC50 is above 200 µM and the IC50 was above 200 µM.

Consider `CCOC(=O)c1sc(C(=O)OCC)c2c1-c1cccc3cccc-2c13`, for which the EC50 was above 200 µM and the concentration for half-maximal inhibition (IC50) was above 200 µM.

For the molecule `O=C(CC1C(=O)Nc2ccccc2S1=O)Nc1cc(Cl)ccc1Cl` (centres undefined), the EC50 is above 3.8 µM and the IC50 was above 3.8 µM.

`CC/C=C/C(=O)CC(O)(C(F)(F)F)C(F)(F)F`: the EC50 is above 200 µM and the IC50 was above 200 µM.

`CC1(C)CN=CC(C)(OCc2ccccc2)C(=O)NC(C)(C)CN=CC(C)(OCc2ccccc2)C(=O)N1` (centres undefined): the EC50 was above 7.24 µM and the IC50 was above 7.24 µM.

`CN(C)CCSC1=Nc2ccc(Cl)cc2C(c2ccccc2Cl)=NC1`: the EC50 is above 200 µM; the IC50 is 12.3 µM and 47.9 µM.

For `COc1ccc2c(CN3CCCCC3CO)cc3cc(OC)c(OC)cc3c2c1` (centres undefined), the result was inactive.

For the molecule `COc1cc2c(cc1OC)-c1nc(N)sc1CC2`, the EC50 was above 38 µM and the half-maximal inhibitory concentration (IC50) is above 38 µM.

For `COc1nn(Cc2ccccc2F)c2ccc([N+](=O)[O-])cc12`, the EC50 was above 200 µM and the IC50 amounted to 50.1 µM.

For `COC(=O)C1=C(C)N(NC(=O)c2cccc(Cl)c2)C(C)(O)C12CCOC2=O` (centres undefined), the EC50 was above 631 µM and the concentration for half-maximal inhibition (IC50) was determined as 275 µM.

As for `COc1ccc(C=C2C(=O)OC(C)(C)OC2=O)cc1`, the EC50 was above 501 µM and the IC50 worked out at 151 µM.

With `CCN(CC)CCNc1ccc(CO)c2oc3ccccc3c(=O)c12`, the EC50 is above 363 µM and the IC50 is 2.4 µM.

Regarding `COC(=O)C1=C(C(=O)OC)C2C3CC4C(C13)C42`, the EC50 is above 200 µM and the IC50 is above 200 µM.

For the molecule `O=S(=O)(O)C1=C2Sc3ccccc3N=C2c2ccccc2C1`, the EC50 was above 141 µM and the 50% inhibitory concentration (IC50) was determined as 7.94 µM.

For `O=c1[nH]c(=O)n(COCCO)c2ccc(Br)cc12`, the EC50 was above 200 µM and the concentration for half-maximal inhibition (IC50) is above 200 µM.

For `CC(C)/C(Cl)=N\OC(=O)Nc1ccccc1F`, the EC50 is above 200 µM and the IC50 was 7.94 µM.

As to `C[CH2][Sn]([Cl])([CH2]C)[CH2]C`, the result was inactive.

Consider `CCN(C(=O)N[C@@H](CC(C)C)C(=O)NCC(=O)OC)c1ccccc1`, for which the EC50 is above 200 µM and the IC50 is 110 µM.

For the molecule `C[C@]12CCc3nonc3C1CC[C@@H]1C2CC[C@]2(C)C(=O)CCC12` (some centres undefined), the EC50 was above 83.2 µM and the IC50 is above 83.2 µM.

Consider `O=C(O)c1ccc2c(O)c(O)ccc2c1`, for which the EC50 was above 77.6 µM and the half-maximal inhibitory concentration (IC50) was determined as 6.03 µM.

For the molecule `CC1=N/C(=C\c2ccc(C#N)cc2)C(=O)O1`, the EC50 was above 123 µM and the IC50 is above 123 µM.

`COc1cc2c(cc1OCc1ccccc1)CNCC2`: the EC50 is above 794 µM and the half-maximal inhibitory concentration (IC50) was determined as 145 µM.

Turning to `Cc1cc(NS(=O)(=O)c2ccc(NC(=O)c3cccc4c(N)c5ccccc5nc34)cc2)no1`, the EC50 is above 93.3 µM and the half-inhibitory concentration (IC50) came out at 43.7 µM.

Take `COC(=O)C1=COC(C)C2CN3CCC4(C(=O)Nc5ccccc54)C3CC12` (centres undefined): the outcome was inactive.

As for `Nc1ccc(C(=O)N/C(=C\c2cccc([N+](=O)[O-])c2)c2nc3ccc(Cl)cc3[nH]2)cc1`, the outcome was inactive.

In the case of `Cc1ccc(S(=O)(=O)n2c(-c3ccccc3)c(-c3ccccc3)c3ccccc32)cc1`, the EC50 was above 50.1 µM and the IC50 is 38.9 µM.

With `S=C1CC(c2ccc(Cl)cc2)Sc2ccccc2N1` (centres undefined), the EC50 was above 200 µM and the IC50 is 138 µM.

`Cc1ccc(-c2n[nH]c(=O)[nH]2)cc1`: the EC50 was above 200 µM and the IC50 is above 200 µM.

As to `Clc1cc(Cl)c2c(c1)[nH]c1nc3ccccc3nc12`, the EC50 was above 18.2 µM and the concentration for half-maximal inhibition (IC50) was above 18.2 µM.

For `COc1cc(C2c3cc4c(cc3OC(Nc3ccccc3)C2C)OCO4)cc(OC)c1O` (centres undefined), the outcome was inactive.

As to `CNC(=O)C(C)C1C(=O)/C(=C(O)/C=C\C(C)=C\C(C)C2OC3(C)OC(C=CC34CO4)C2C)C(=O)N1C1CCC(O)C(C)O1` (centres undefined), the EC50 is above 31.6 µM and the IC50 was above 31.6 µM.

As to `CC(C)(CCCCC(C)(C)NCC1COc2ccccc2O1)NCC1COc2ccccc2O1` (centres undefined), the EC50 was above 200 µM and the IC50 came out at 7.24 µM.

For the molecule `O=C(CC(=O)c1ccccc1)CC(O)(c1ccccc1)c1ccccc1`, the EC50 is above 11 µM and the IC50 was above 11 µM.

`COC(=O)c1ncn(Cc2ccccc2)c1N`: the EC50 is above 200 µM and the IC50 is above 100 µM.

The values are drawn from PubChem BioAssay AID179 (DTP/NCI, 2004).
